# “Also recorded” adds a separate entry of the source.
# What was measured:
# HIF-1α mRNA = test: Real-time quantitative RT-PCR of HIF-1α transcript; assay type: cell-based, human; conditions: 10 nM CCI-779
# Description: Total RNA was extracted from SN12C-CSCG, ACHN-CSCG, SN12C-CSCG-VHLshRNA and ACHN-CSCG-VHL shRNA cell lines treated with vehicle or 10 nM of CCI-779 using the RNeasy kit (Qiagen). Two μg of total RNA was used as a template for the production of c DNA through reverse transcription. The reactions were assembled as in a 25 μl final volume as follows: 1 μM primers (random hexamers; Invitrogen), 10 mM DTT, 1X Superscript II buffer, […] of dATP, dCTP, dGTP and dTTP, 10U RNasin, 200 units of Superscript II reverse transcriptase. Each RNA template, primer and nuclease free water were combined and incubated for 10 minutes, then placed in an ice bath. The remaining reaction components were added and each reaction was incubated at 25° C. for 10 minutes, then 42° C. for 60 minutes and finally 70° C. for 15 minutes. Negative control reactions (which contained no RT enzyme) were also assembled. Real-time PCR was performed on an ABI Prism 7700 sequence detector (Applied Biosystems). Primers and specific probes for HIF-1α and 18S were obtained from Assays-on Demand Gene Expression products (Applied Biosystems). […] Threshold cycles (Ct's) for the RT samples were recorded. […] Tracer uptake by the tumors was expressed as the ratio between the maximum intratumoral and mean hepatic counts/pixel. All quantitative values are reported as mean±standard error of the mean (SEM).
# mTOR = test: Immunoblot of S6 phosphorylation in xenograft tumors; assay type: in vivo, SCID mice; conditions: parental and knockdown xenografts, 0.1 mg/kg, day 5 of treatment
# Description: FIGS. 1A-1E. Effects of VHL knockdown on sensitivity to CCI-779. (a) Immunoblotting of lysates derived from shRNA and control (empty vector, V) in SN12C, using antibodies against VHL (both isoforms detected), HIF-1α, HIF-2α, GLUT-1, CA-IX and β-Actin (as a loading control). (b) SN12C-CSCG and SN12C-VHLshRNA cells (1×10^5) were cultured in 10% serum rich media, in the presence of vehicle, 1 or 10 nM of CCI-779 for 5 days. Cell growth was measured by cell counts (n=3). […] (c) SN12C-CSCG (C1) and SN12C-CSCG shVHL RNA (C2) cells were injected into SCID mice at a dose of 1×10^6 cells per mouse (n=30). […] Phosphorylated-S6 protein in SN12C-CSCG and SN12C-VHL shRNA xenograft tumors treated with vehicle or 0.1 mg/kg of CCI-779 was measured by immunoblot C3 and C4). […]
# Cells and xenograft tumors were lysed in ECB lysis buffer (see, e.g. Kondo et al., Cancer Cell 1, 237-46 (2002)) or high-detergent buffer (2% SDS), (see, e.g. Chen et al., Nat Med 10, 33-9 (2004)), respectively, supplemented with complete protease and phosphatase inhibitor cocktails (Calbiochem). […] Bound antibody was detected using enhanced chemiluminescence (ECL, Amersham). For VEGF ELISA quantification, cells were plated in 6 well plates (1×10^5 per well). […] Thirty-six hours later, VEGF ELISA (R&D Systems) was performed according to the manufacturer's instructions, using a Fisher Plate reader. […]
compound,measurement,setting,value
CO[C@H]1C[C@@H]2CC[C@@H](C)[C@@](O)(O2)C(=O)C(=O)N2CCCC[C@H]2C(=O)O[C@H]([C@H](C)C[C@@H]2CC[C@@H](OC(=O)C(C)(CO)CO)[C@H](OC)C2)CC(=O)[C@H](C)/C=C(\C)[C@@H](O)[C@@H](OC)C(=O)[C@H](C)C[C@H](C)/C=C/C=C/C=C/1C [CCI-779],HIF-1α transcript (mRNA) levels,HIF-1α mRNA,no effect; also recorded: without exerting any effect on transcription; also recorded: did not see any changes
same,S6 phosphorylation in xenograft tumors,mTOR,decrease in S6 phosphorylation
